Reference: patent US12251383B2, “Methods and compositions for KRAS inhibitors” (The Board of Regents of the University of Texas System, priority 2019, dated 2025)

Experiments:
[1] = biological target: KRASWT (Homo sapiens, UniProt P01116); assay: Nucleotide exchange assay (intrinsic and SOS-mediated); assay type: biochemical
Procedure: Nucleotide exchange and release assays. Loading of fluorescent-labeled GDP (BODIPY-GDP; BGDP from hereon) to KRAS was conducted following previous reports (23, 47), with minor modifications. Purified KRAS was buffer-exchanged in NAP-5 column (GE Life Sciences) in low Mg^2+ buffer (25 mM Tris pH 7.5, 50 mM NaCl, and 0.5 mM MgCl2). The eluate was incubated with 10-fold molar excess of BGDP (Life Technologies) in the presence of 5 mM EDTA and 1 mM DTT for 1.5 h at 20° C. in the dark. Then 10 mM MgCl2 was added and the solution was incubated for 30 min at 20° C. Free nucleotide was removed by gel filtration using a PD-10 column (GE Life Sciences) that had been equilibrated with the reaction buffer (25 mM Tris-HCL pH 7.5, 50 mM NaCl, 1 mM MgCl2, and 1 mM DTT). The concentration of ^BGDPKRAS was determined using Bradford assay and a BGDP standard curve. Then the effect of ligands on the intrinsic rate of nucleotide release was monitored using the decrease in fluorescence with time as BGDP dissociates from KRAS in a 100 μL reaction mixture (96-well plate) of 0.5 μM B^GDPKRAS, 100 μM GTP and varying concentrations of ligand (0 to 25 μM); GTP was added just before measurements. To measure the rate of SOS-mediated nucleotide release, 0.5 μM SOS (residues 564-1049, Cytoskeleton Inc) was added after adding GTP, and fluorescence was immediately read (excitation: 485 nm, emission: 510 nm) using Tecan Infinite M200 plate reader. Intrinsic and SOS-mediated nucleotide exchange rates were monitored with the fluorescence intensity increase of BGTP as it displaces GDP from KRAS. A 100 μL reaction mixture was used containing 0.5 μM each of ^GDPKRAS, BGTP (and SOS) plus varying concentrations of ligand (0 to 25 μM); BGTP was added just before measurements. Experiments were conducted with minimal light and the reaction was monitored for 2 h at room temperature. Fluorescence intensities were normalized at 120 s and the traces were fit with linear or single exponential functions (Igor Pro, Wavemetrics).
The effect of compound 11 on intrinsic and GEF-dependent nucleotide release and exchange reactions was determined. […] In particular, 11 decreased the intrinsic rate of nucleotide exchange by ˜10-fold at >10 μM (Fig S4, top-left), but it has no effect on intrinsic nucleotide release (Appendix I, Figure S4, bottom-left). […] Since GTP hydrolysis is unlikely to occur within the timescale of the experiments disclosed herein (2, 3), a plausible interpretation of the former would be compromised GTP loading. This is possible if, for example, the ligand binds to the nucleotide free ‘transition state’ conformation of KRAS and induces reorganization of active site residues. […]

[2] = test system: RASless MEF cells expressing BRAF V600E; assay: Proliferation of RASless MEF cells expressing BRAF V600E; assay type: cell-based; conditions: Mus musculus, normalized to DMSO control, 3 measurements, read-out: IC50 for inhibition of proliferation
Procedure: Cell numbers were averaged from 3 independent measurements and normalized with respect to DMSO control. Assays were conducted as described in McCarthy et al, (ACS Omega2019, 4, 2, 2921-2930).

[3] = test system: HRAS^G12V; assay: Cell signaling (Western) in BHK cells expressing HRAS G12V; assay type: cell-based, hamster
Procedure: Cell signaling. The inhibitory potential of compounds was tested in monoclonal Baby Hamster Kidney (BHK) cell lines stably expressing monomeric green fluorescence protein (mGFP)-tagged KRAS^G12D, K-Ras^G12V and HRAS^G12V. Cells were cultured in Dulbecco's Modified Eagle Medium (DMEM, Hyclone) supplemented with 10% v/v bovine calf serum and incubated with compound or vehicle (DMSO) for 3 h without serum. Cells were then harvested in lysis buffer (50 mM Tris (pH 7.5), 75 mM NaCl, 25 mM NaF, 5 mM MgCl2, 5 mM EGTA, 1 mM dithiothreitol, 100 μM NaVO4, 1% Nonidet P40 plus protease inhibitors) and subjected to Western analysis controlling protein loading by BCA (bicinchoninic acid) assay. Lysates were resolved with Bio-Rad polyacrylamide TGX 10% gel, transferred to polyvinylidene fluoride (PVDF) membrane and immunoblotted using pan-AKT (2920S), GFP (2956S), pAKT^S473 (4060L), p-cRaf^S338 (9427S), p-ERK^T202/Y204 (4370L), ERK1/2 (4695S) or β-actin antibodies (Cell Signaling Technology). IC50 values were calculated with Prism 4-parameter fit.

KRASWT, sequence (P01116 1-188 isoform P01116-2): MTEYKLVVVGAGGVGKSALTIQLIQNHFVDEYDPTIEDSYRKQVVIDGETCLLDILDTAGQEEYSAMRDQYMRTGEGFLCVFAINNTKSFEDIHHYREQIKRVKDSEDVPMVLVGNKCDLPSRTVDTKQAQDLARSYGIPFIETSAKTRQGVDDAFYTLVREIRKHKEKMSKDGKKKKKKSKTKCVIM

## Cc1nn2c(N3CCN(CCO)CC3)cc(-c3ccccc3)nc2c1-c1ccccc1 [Compound 11, 2-[4-(8-methyl-3,9-diphenyl-2,6,7-triazabicyclo[4.3.0]nona-2,4,7,9-tetraen-5-yl)piperazin-1-yl]ethanol]
[1]; SOS-mediated
  effect on SOS-mediated nucleotide exchange rate: slightly reduced
[1]; SOS-mediated (Fig S4 top-right)
  decrease of rate of nucleotide exchange: 1.1 fold
[1]; intrinsic
  effect on intrinsic nucleotide exchange rate: slightly reduced
[1]; intrinsic, at >10 μM
  decrease of intrinsic rate of nucleotide exchange: ~10 fold
[2]
  IC50: 1.68 ± 0.17 µM
[3]
  effect on p-AKT levels: no major effect
  effect on p-ERK levels: not and no significant effect
  effect on p-cRaf levels: not and no significant effect
